Source: patent EP4101442A1, “PROCESS FOR PREPARING COMPACTED COENZYME Q10 PARTICLES OF HIGH DENSITY AND IMPROVED FLOWABILITY” (Tradichem Industrial Services, S.L., priority 2021, dated 2022)
Read-outs that look alike come from different tables or passages of the source.

Tests used:
Type in all cases: physicochemical
[1] = Bulk density (PT-SV100 Scott Volumeter)
Text: The bulk density, also called apparent density, can be defined as the ratio of the mass to the volume of an untapped powder sample, as "poured". The bulk density is given in grams per millilitre (g/ml) and is typically calculated by "pouring" a known mass of powder into a graduated cylinder.
(§1) Bulk density and tapped density can be measured according to the method disclosed in the European Pharmacopoeia section 2.9.34 (Bulk density and tapped density of powders), for example, the bulk density may be measured using the PT-SV100 Scott Volumeter and the tapped density may be measured using the PT-TD200 Tap Density Tester (Pharma Test Apparatebau AG, Germany).
(§2) The bulk density was measured using a PT-SV100 Scott Volumeter (Pharma Test) and the tapped density was measured using a PT-TD200 Tap Density Tester (Pharma Test).

[2] = Tapped density (PT-TD200 Tap Density Tester)
Description: On the other hand, tapped density, also called compacted density, of a powder is the ratio of the mass of the powder to the volume occupied by the powder after it has been tapped for a defined period of time. Tapped density is measured by first gently introducing a known sample mass into a graduated cylinder and carefully levelling the powder without compacting it. The cylinder is then mechanically tapped by raising the cylinder and allowing it to drop under its own weight using a suitable mechanical tapped density tester that provides a suitable fixed drop distance and nominal drop rate
as §1, §2

[3] = Carr index (compressibility) calculated from bulk and tapped density
Description: The Carr index, also called Carr's index or compressibility index, is calculated according to the following formula: Carr index = (Density (tapped)−Density (bulk))/(Density (tapped)) × 100 [formula]
Free flowing powders have smaller values of the Carr index than poor flowing powders. In general, a Carr index greater than 25 is considered to be an indication of poor flowability, and below 15, of good flowability.
(§3) The relationship between Carr index and/or Hausner ratio with powder flowability is well recognized in the art, for example, as disclosed by M. E. Aulton, in "Powder flow", chapter 12 of the well-recognized reference book in pharmaceutical technology "Aulton's Pharmaceutics. The design and manufacture of medicines", Fifth Edition 2018, M.E. Aulton and K.M.G. Taylor, Editors, Elsevier Ltd, as summarized in the following table: […]

[4] = Hausner ratio calculated from bulk and tapped density
Description: Hausner ratio is also predictive of powder flow, and is calculated according to the following formula: Hausner ratio = (Density (tapped))/(Density (bulk)) […] [formula]
In this case, a Hausner ratio greater than 1.34 is generally considered to be an indication of poor flowability.
as §3

Flow rate = assay: Flow rate
[5] = Angle of repose from radius and height of the poured cone; settings: tan^-1 (height/radius) of the cone after pouring
Text: The "angle of repose" is another parameter for indirectly quantifying powder flowability. It is the angle at which a material will rest on a stationary heap, specifically, is the angle formed by the heap slope and the horizontal plane. It may be calculated by different methods, commonly, just pouring the material on a flat surface. It also can be calculated as "drained angle of repose", as the angle measured on the internal conical face of a material which has been formed when drained from an orifice of a flat-bottomed container to the horizontal. A dynamic angle of repose can also be used, which is the angle to the horizontal of the free surface formed in a relatively slowly rotating drum (Aulton, op. cit., pg. 197).
In this case, the lower the value of the angle of repose, the higher the flowability of the material. It is generally considered that an angle of repose higher than 45 correlates with poor flowability, whereas an angle of repose under 30 correlates with excellent flowability.
The angle of repose was determined by measuring the radius and the height of the cone formed after pouring the powder, using the formula tan^-1 (height/radius).

[6] = Aspect (visual appearance) of the powder or granules
Text: It can be observed that the non-compacted material has damp and agglomerated appearance, whereas the compacted product has dry, non-agglomerated, flowable appearance.

Particle size by sieving = settings: compacted product passed through a sieve of 800 micron opening; 100% of the particles
Text: The compactor was connected to a rotor granulator for milling the outcoming compacted plaque. The granulation speed was fixed to 70 r.p.m. and the obtained granulate was passed through a sieve of 800 micron opening.

[7] = Handling observed during manufacture of capsules and tablets
Description: All ingredients were added to a Turbula mixer, blended during 15 minutes, and filled into capsules of 00 size.
Furthermore, the powder mixture was easily blended and good homogeneity was easily achieved, without segregation of the ingredients.
All ingredients were mixed in Turbula mixer during about 15 minutes and compressed into tablets.
The powder mixture was easily blended and had good homogeneity, without segregation of the ingredients.

[8] = general description of the starting material, 'for example' value

Structure (SMILES)	Bulk density [1] [g/mL]	Bulk density ([1]; listed as compacted coenzyme Q10) [g/mL]	Tapped density [2] [g/mL]	Compressibility (Carr Index) [3] [%]	Hausner ratio [4]	Flow rate (Flow rate)	Angle of repose [5] [°]	Aspect [6]	particle size (Particle size by sieving)	flowability and adherence during tablet preparation ([7]; 30 mg tablets by direct compression, Turbula mixer about 15 minutes)	flowability and adherence during capsule preparation ([7]; 100 mg hard gelatin capsules, Turbula mixer 15 minutes)	bulk (or apparent) density [1, 8]	Bulk density ([1]; listed as coenzyme Q10 raw material) [g/mL]	tapped (or compacted) density [2, 8]
COC1=C(OC)C(=O)C(C/C=C(\C)CC/C=C(\C)CC/C=C(\C)CC/C=C(\C)CC/C=C(\C)CC/C=C(\C)CC/C=C(\C)CC/C=C(\C)CC/C=C(\C)CCC=C(C)C)=C(C)C1=O [Compacted CoQ10 (Example 1), 2-[(2E,6E,10E,14E,18E,22E,26E,30E,34E)-3,7,11,15,19,23,27,31,35,39-Decamethyltetraconta-2,6,10,14,18,22,26,30,34,38-decaenyl]-5,6-dimethoxy-3-methylcyclohexa-2,5-diene-1,4-dione]	0.52	0.52	0.57	8.78	1.10	Three times faster than for uncompacted CoQ10. The material does not stick to the walls	10	Orange granules without agglomerates, highly flowable and with dry appearance	less than 800 microns	good flowability and did not adhere neither to the walls of vessels and mixers nor to the punches and dies of the tableting machine	good flowability and did not adhere to the walls of vessels and mixers			
COC1=C(OC)C(=O)C(C/C=C(\C)CC/C=C(\C)CC/C=C(\C)CC/C=C(\C)CC/C=C(\C)CC/C=C(\C)CC/C=C(\C)CC/C=C(\C)CC/C=C(\C)CCC=C(C)C)=C(C)C1=O [Non-compacted CoQ10 (starting material), 2-[(2E,6E,10E,14E,18E,22E,26E,30E,34E)-3,7,11,15,19,23,27,31,35,39-Decamethyltetraconta-2,6,10,14,18,22,26,30,34,38-decaenyl]-5,6-dimethoxy-3-methylcyclohexa-2,5-diene-1,4-dione]	0.22		0.34	35.3	1.55	Slow, the material sticks to the walls	45	Orange powder with damp, agglomerated appearance, hygroscopic	less than 800 microns			about 0.22 mg/ml	0.22	about 0.34 mg/ml
